Laboratory results: patent publication US9556143B2, “Metalloenzyme inhibitor compounds” (Viamet Pharmaceuticals, Inc., priority 2011, dated 2017)

These molecules were tested on Puccinia recondita tritici = Puccinia triticina (PUCCRT) (assay: Fungicidal activity vs. wheat leaf rust). Settings: % disease control @ 50 ppm, wheat seedlings sprayed, inoculated the following day, severity evaluated 7-9 days later, read-out: Puccinia Rating.
Type: in vivo, Puccinia recondita tritici on wheat (variety Yuma)
Text: D. Evaluation of Fungicidal Activity Vs. Leaf Rust (Causal Agent Puccinia recondita tritici=Puccinia triticina; Bayer code PUCCRT). […] Each pot contained 3-8 seedlings. These plants were sprayed until wet with the formulated test compounds. The compounds were formulated at 50 ppm in 10 vol. % acetone plus 90 vol. % Triton X water (deionized water 99.99 wt %+0.01 wt % Triton X100), giving a “formulated test compound.” Formulated test compounds were applied to plants using a turn table sprayer fitted with two opposing air atomization nozzles which delivered approximately 1500 L/ha of spray volume. On the following day, the leaves were inoculated with an aqueous spore suspension of Puccinia recondita tritici and the plants were kept in high humidity overnight to permit spores to germinate and infect the leaf. The plants were then transferred to a greenhouse until disease developed on untreated control plants. Disease severity was evaluated 7-9 days later, depending on the speed of disease development. In each case of Table 3, the Puccinia rating scale is as follows: […]

SMILES | pest or weed control at 50 ppm [%]
OC(Cn1cnnn1)(c1ccc(F)cc1F)C(F)(F)c1ccc(C(F)(F)c2ccc(C(F)(F)F)cc2)cn1 (centres unmarked) [Compound 102, 1-(5-(difluoro(4-(trifluoromethyl)phenyl)methyl)pyridin-2-yl)-2-(2,4-difluorophenyl)-1,1-difluoro-3-(1H-tetrazol-1-yl)propan-2-ol] | 80 to 100
OC(Cn1cnnn1)(c1ccc(F)cc1F)C(F)(F)c1ccc(-c2nccs2)cn1 (centres unmarked) [Compound 38, 2-(2,4-Difluorophenyl)-1,1-difluoro-3-(1H-tetrazol-1-yl)-1-(5-(thiazol-2-yl)pyridin-2-yl)propan-2-ol] | 80 to 100
O=C(c1ccc(F)cc1)c1ccc(C(F)(F)C(O)(Cn2cnnn2)c2ccc(F)cc2F)nc1 (centres unmarked) [Compound 69, (6-(2-(2,4-Difluorophenyl)-1,1-difluoro-2-hydroxy-3-(1H-tetrazol-1-yl)propyl)pyridin-3-yl)(4-fluorophenyl)methanone] | 80 to 100
N#Cc1ccc(C(F)(F)c2ccc(C(F)(F)C(O)(Cn3cnnn3)c3ccc(F)cc3F)nc2)cc1 (centres unmarked) [Compound 103, 4-((6-(2-(2,4-difluorophenyl)-1,1-difluoro-2-hydroxy-3-(1H-tetrazol-1-yl)propyl)pyridin-3-yl)difluoromethyl)benzonitrile] | 80 to 100
N#Cc1ccc(OCc2ccc(C(F)(F)C(O)(Cn3cnnn3)c3ccc(F)cc3F)nc2)nc1 (centres unmarked) [Compound 98, 6-((6-(2-(2,4-difluorophenyl)-1,1-difluoro-2-hydroxy-3-(1H-tetrazol-1-yl)propyl)pyridin-3-yl)methoxy)nicotinonitrile] | 80 to 100
OC(Cn1cnnn1)(c1ccc(F)cc1F)C(F)(F)c1ccc(-c2ccc(C(F)(F)F)s2)cn1 (centres unmarked) [Compound 34, 2-(2,4-Difluorophenyl)-1,1-difluoro-3-(1H-tetrazol-1-yl)-1-(5-(5-(trifluoromethyl)thiophen-2-yl)pyridin-2-yl)propan-2-ol] | 80 to 100
OC(Cn1cnnn1)(c1ccc(F)cc1F)C(F)(F)c1ccccn1 (stereo not drawn) [2(−), 2-(2,4-Difluorophenyl)-1,1-difluoro-1-(pyridin-2-yl)-3-(1H-tetrazol-1-yl)propan-2-ol] | 80 to 100
O=C(c1ccc(C(F)(F)C(O)(Cn2cnnn2)c2ccc(F)cc2F)nc1)c1ccc(Cl)c(F)c1 (centres unmarked) [Compound 71, (4-Chloro-3-fluorophenyl)(6-(2-(2,4-difluorophenyl)-1,1-difluoro-2-hydroxy-3-(1H-tetrazol-1-yl)propyl)pyridin-3-yl)methanone] | 80 to 100
O=C(c1ccc(OCC(F)(F)F)cc1)c1ccc(C(F)(F)C(O)(Cn2cnnn2)c2ccc(F)cc2F)nc1 (centres unmarked) [Compound 68, (6-(2-(2,4-Difluorophenyl)-1,1-difluoro-2-hydroxy-3-(1H-tetrazol-1-yl)propyl)pyridin-3-yl)(4-(2,2,2-trifluoroethoxy)phenyl)methanone] | 80 to 100
N#Cc1ccc(OCc2ccc(C(F)(F)C(O)(Cn3cnnn3)c3ccc(F)cc3F)nc2)c(F)c1 (centres unmarked) [Compound 88, 4-((6-(2-(2,4-difluorophenyl)-1,1-difluoro-2-hydroxy-3-(1H-tetrazol-1-yl)propyl)pyridin-3-yl)methoxy)-3-fluorobenzonitrile] | 80 to 100
OC(Cn1cnnn1)(c1ccc(F)cc1F)C(F)(F)c1ccc(Cc2ccc(C(F)(F)F)cc2)cn1 (centres unmarked) [Compound 73, 2-(2,4-Difluorophenyl)-1,1-difluoro-3-(1H-tetrazol-1-yl)-1-(5-(4-(trifluoromethyl)benzyl)pyridin-2-yl)propan-2-ol] | 80 to 100
OC(Cn1cnnn1)(c1ccc(Cl)cc1F)C(F)(F)c1ccc(C2CC2)cn1 (centres unmarked) [Compound 40, 2-(4-Chloro-2-fluorophenyl)-1-(5-cyclopropylpyridin-2-yl)-1,1-difluoro-3-(1H-tetrazol-1-yl)propan-2-ol] | 80 to 100
OC(Cn1cnnn1)(c1ccc(F)cc1F)C(F)(F)c1ccc(Br)cn1 (centres unmarked) [Compound 1, 1-(5-Bromopyridin-2-yl)-2-(2,4-difluorophenyl)-1,1-difluoro-3-(1H-tetrazol-1-yl)propan-2-ol] | 80 to 100
CC(C)OC/C=C/c1ccc(C(F)(F)C(O)(Cn2cnnn2)c2ccc(F)cc2F)nc1 (centres unmarked) [Compound 54, (E)-2-(2,4-Difluorophenyl)-1,1-difluoro-1-(5-(3-isopropoxyprop-1-en-1-yl)pyridin-2-yl)-3-(1H-tetrazol-1-yl)propan-2-ol] | < 40
OC(Cn1cnnn1)(c1ccc(F)cc1F)C(F)(F)c1ccc(C(F)(F)c2ccc(F)cc2)cn1 (centres unmarked) [Compound 101, 1-(5-(difluoro(4-fluorophenyl)methyl)pyridin-2-yl)-2-(2,4-difluorophenyl)-1,1-difluoro-3-(1H-tetrazol-1-yl)propan-2-ol] | 80 to 100
OC(Cn1cnnn1)(c1ccc(F)cc1F)C(F)(F)c1ccc(CC2CC2)cn1 (centres unmarked) [Compound 59, 1-(5-(Cyclopropylmethyl)pyridin-2-yl)-2-(2,4-difluorophenyl)-1,1-difluoro-3-(1H-tetrazol-1-yl)propan-2-ol] | 80 to 100
OC(Cn1cnnn1)(c1ccc(Cl)cc1F)C(F)(F)c1ccc(Br)cn1 (centres unmarked) [Compound 22, 1-(5-Bromopyridin-2-yl)-2-(4-chloro-2-fluorophenyl)-1,1-difluoro-3-(1H-tetrazol-1-yl)propan-2-ol] | 80 to 100
COc1ccc(-c2ccc(C(F)(F)C(O)(Cn3cnnn3)c3ccc(F)cc3F)nc2)s1 (centres unmarked) [Compound 32, 2-(2,4-Difluorophenyl)-1,1-difluoro-1-(5-(5-methoxythiophen-2-yl)pyridin-2-yl)-3-(1H-tetrazol-1-yl)propan-2-ol] | 40 to 59
O=C(c1ccc(C(F)(F)F)cc1)c1ccc(C(F)(F)C(O)(Cn2cnnn2)c2ccc(F)cc2F)nc1 (centres unmarked) [Compound 66, (6-(2-(2,4-Difluorophenyl)-1,1-difluoro-2-hydroxy-3-(1H-tetrazol-1-yl)propyl)pyridin-3-yl)(4-(trifluoromethyl)phenyl)methanone] | 80 to 100
OC(Cn1cnnn1)(c1ccc(Cl)cc1F)C(F)(F)c1ccc(-n2nccn2)cn1 (centres unmarked) [Compound 28, 1-(5-(2H-1,2,3-Triazol-2-yl)pyridin-2-yl)-2-(4-chloro-2-fluorophenyl)-1,1-difluoro-3-(1H-tetrazol-1-yl)propan-2-ol] | 80 to 100
O=C(c1ccc(Cl)cc1)c1ccc(C(F)(F)C(O)(Cn2cnnn2)c2ccc(F)cc2F)nc1 (centres unmarked) [Compound 67, (4-Chlorophenyl)(6-(2-(2,4-difluorophenyl)-1,1-difluoro-2-hydroxy-3-(1H-tetrazol-1-yl)propyl)pyridin-3-yl)methanone] | 80 to 100
OC(Cn1cnnn1)(c1ccc(F)cc1F)C(F)(F)c1ccc(Cc2ccccc2)cn1 (centres unmarked) [Compound 75, 1-(5-Benzylpyridin-2-yl)-2-(2,4-difluorophenyl)-1,1-difluoro-3-(1H-tetrazol-1-yl)propan-2-ol] | 80 to 100
OC(Cn1cnnn1)(c1ccc(Cl)cc1F)C(F)(F)c1ccc(CC(F)(F)F)cn1 (centres unmarked) [Compound 39, 2-(4-Chloro-2-fluorophenyl)-1,1-difluoro-3-(1H-tetrazol-1-yl)-1-(5-(2,2,2-trifluoroethyl)pyridin-2-yl)propan-2-ol] | 80 to 100
